Data reported in patent US20210276967A1 (OSPEDALE SAN RAFFAELE S.R.L., priority 2018, published 2021).

Experiments:
[1] = Hepatocytes stability, human; format: in vitro ADME; conditions: data not shown
Method: Hepatic metabolism is often a major contributor to drug clearance from the body. Pooled cryopreserved human hepatocytes (commercially available for example from Bioreclamation IVT, LiverPool 20-donor Human Hepatocytes Product. No. X008000) are thawed and re-suspended in Hepatocyte Culture Medium (HCM) complete (commercially available, as for example from Lonza, HBM Hepatocytes Basal Medium Catalog No. CC-3199+HCM SingleQuots Catalog No. CC-4182). Compounds are diluted into the cell suspension (2.5 μl/2.5 mL, 1 million cells/mL) from 3 mM stock solution in DMSO to give a 3 μM concentration (0.1% DMSO). 150 μl (×2) of this mixture are taken and transferred into a 96-deep-well plate containing an equal volume of quenching solution (100% acetonitrile plus 0.1% formic acid) for time 0 incubation. […]
Stability is determined based on analysis of the disappearance of the compound as a function of incubation time, using area ratio (analyte peak area vs internal standard peak area). The elimination constant k is calculated by plotting mean disappearance values on a semi-logarithmic scale and fitting with a best fit linear regression. […] When the half-life could not be calculated, data are reported as: <0.5 or >4 hours. Intrinsic clearance given in μl/min/million cells is calculated using the Equation: Clint=KV/N. Where K=0.693/t1/2, V=incubation volume (ml) and N=number of hepatocytes/sample.

HBV genotype D = assay: Antiviral activity in HepG2 cells transfected with HBV genotype D plasmid, extracellular HBV DNA qPCR; format: cell-based; conditions: Hepatitis B virus, read-out: HBV inhibition EC50 (Mean ± StD)
Method: (§1) HepG2 hepatoma cells transfected with HBV plasmids corresponding to the different isolates were used to perform antiviral assay against different HBV genotypes. HBV plasmids were obtained by cloning fragment containing of 1.1-mer HBV genome into the SacI/SaII sites of pcDNA3.1zeo(−) plasmid (V86520, Thermofisher Scientific). The HepG2 cell line was maintained in DMEM, supplemented with 10% of FBS, 1% glutamine and 1% penicillin/streptomycin.
(§2) HBV inhibition activity was determined on different HBV genotypes. For this purpose plasmids pcDNA3.1Zeo(−)-HBV1.1 expressing HBV genotypes A, B, C, D, E were transfected in HepG2 cell line and extracellular HBV quantification was performed by direct qPCR as described above. In detail, cells were seeded at 20,000 cells/well in polylisine coated 96-multiwell plates and 24 h later HBV plasmids were transfected with lipofection using manufacturer's procedure (Lipofectamine 3000 Reagent, Thermofisher Scientific). Five hours after transfection cells were extensively washed with PBS and compounds were added in 8-point dose-response curve in 0.5% DMSO as described above. After 4 days of incubation at 37° C. cells were subjected to cell viability assays and extracellular HBV quantification, in order to evaluate both the cytotoxic potential and the anti-viral activity of compounds, as described above. […]

[2] = system: HBV (HBeAg, surrogate of cccDNA biogenesis); assay: In vitro HBV infection of HepG2-NTCP cells, extracellular HBeAg ELISA (establishment of HBV cccDNA); format: cell-based; conditions: Hepatitis B virus, 144 h, 6 days, read-out: HBeAg* inhibition EC50 (Mean ± StD, μM) *surrogate of cccDNA biogenesis
Excerpt: HepG2-NTCP hepatoma cell line was used to conduct the infection experiments. HepG2-NTCP was obtained by ectopic expression in HepG2 cells of the human Sodium Taurocholate Cotransporting Polypeptide receptor (hNTCP) using a lentiviral vector expressing human NTCP (Seeger et al., Molecular Therapy-Nucleic Acids, 2014). hNTCP was recently identified as HBV receptor (Yan H. et al., Elife. Nov. 13, 2012; 3). The complete viral life cycle of HBV could be obtained in the HepG2-NTCP cell line. HepG2-NTCP cells were maintained in DMEM, supplemented with 10% of FBS, 1% glutamine and 1% penicillin/streptomycin.
The ability of compounds to inhibit the establishment of HBV cccDNA in infected cells was investigated in an in vitro model of HBV infection. For this purpose HepG2-NTCP cell line, engineered to stably express the HBV receptor human sodium taurocholate cotrasporting polypeptide (hNTCP), was used and HBV particles were produced in HepAD38 following standard published procedure (Hepatitis B methods and protocols, Guo H., Cuconati, A.; 2017; Humana press). In detail HepG2-NTCP were seeded at 20.000 cells/well in collagen coated 96 multiwell plates. […] The ability of compounds to inhibit the establishment of HBV cccDNA was evaluated by quantification of extracellular HBeAg with ELISA (Elisa Kit HBE.CE. Manufacturer: DIA.PRO). […]

HBV genotype A = assay: Antiviral activity in HepG2 cells transfected with HBV genotype A plasmid, extracellular HBV DNA qPCR; format: cell-based; conditions: Hepatitis B virus, read-out: HBV inhibition EC50 (Mean ± StD)
Method: as §1, §2

SMILES | stability in human hepatocytes [1] | EC50 (HBV genotype D) | EC50 [2] | EC50 (HBV genotype A)
Nc1ccc(C(=O)Nc2cc(F)c(F)c(F)c2)cc1S(N)(=O)=O [Example E3, 4-amino-3-sulfamoyl-N-(3,4,5-trifluorophenyl)benzamide] | stable |  |  | 
Cc1cc(N)c(S(N)(=O)=O)cc1C(=O)Nc1cc(F)c(F)c(F)c1 [Example E17, 4-amino-2-methyl-5-sulfamoyl-N-(3,4,5-trifluorophenyl)benzamide] |  | 38.7 ± 11.1 nM | 0.147 µM | 58.2 ± 25.4 nM
